Article PMC12959773 (Protein & Cell, 2025)

Tests used:
[1] = biological target: T1, SLC7A13-SLC3A1 complex (Homo sapiens, UniProt Q8TCU3, K309A); assay: [2H]-cystine uptake, isotope tracking; assay type: cell-based; settings: HEK293 cells transfected with SLC7A13 and SLC3A1; labelled compound
T1 construct: heterodimeric light/heavy chain transporter, dimer of heterodimers; ectopically expressed in HEK293T / HEK293 cells (Expi293 for cryo-EM); with Amino acid transporter heavy chain SLC3A1
T1 sequence (Q8TCU3 1-470 K309A): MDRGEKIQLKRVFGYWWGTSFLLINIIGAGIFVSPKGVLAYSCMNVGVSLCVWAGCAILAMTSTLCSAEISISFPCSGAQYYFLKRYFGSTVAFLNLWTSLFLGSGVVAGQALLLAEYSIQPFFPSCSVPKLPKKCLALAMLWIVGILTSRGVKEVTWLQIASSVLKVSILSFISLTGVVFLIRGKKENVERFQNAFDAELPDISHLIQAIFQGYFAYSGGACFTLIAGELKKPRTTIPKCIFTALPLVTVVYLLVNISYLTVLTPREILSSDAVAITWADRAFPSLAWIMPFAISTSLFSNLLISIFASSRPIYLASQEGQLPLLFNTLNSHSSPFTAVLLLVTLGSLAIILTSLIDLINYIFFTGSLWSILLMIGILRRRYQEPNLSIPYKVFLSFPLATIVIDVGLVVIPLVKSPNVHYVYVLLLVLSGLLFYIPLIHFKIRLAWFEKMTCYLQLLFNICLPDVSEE
T1 sequence (Q07837 1-685 partner): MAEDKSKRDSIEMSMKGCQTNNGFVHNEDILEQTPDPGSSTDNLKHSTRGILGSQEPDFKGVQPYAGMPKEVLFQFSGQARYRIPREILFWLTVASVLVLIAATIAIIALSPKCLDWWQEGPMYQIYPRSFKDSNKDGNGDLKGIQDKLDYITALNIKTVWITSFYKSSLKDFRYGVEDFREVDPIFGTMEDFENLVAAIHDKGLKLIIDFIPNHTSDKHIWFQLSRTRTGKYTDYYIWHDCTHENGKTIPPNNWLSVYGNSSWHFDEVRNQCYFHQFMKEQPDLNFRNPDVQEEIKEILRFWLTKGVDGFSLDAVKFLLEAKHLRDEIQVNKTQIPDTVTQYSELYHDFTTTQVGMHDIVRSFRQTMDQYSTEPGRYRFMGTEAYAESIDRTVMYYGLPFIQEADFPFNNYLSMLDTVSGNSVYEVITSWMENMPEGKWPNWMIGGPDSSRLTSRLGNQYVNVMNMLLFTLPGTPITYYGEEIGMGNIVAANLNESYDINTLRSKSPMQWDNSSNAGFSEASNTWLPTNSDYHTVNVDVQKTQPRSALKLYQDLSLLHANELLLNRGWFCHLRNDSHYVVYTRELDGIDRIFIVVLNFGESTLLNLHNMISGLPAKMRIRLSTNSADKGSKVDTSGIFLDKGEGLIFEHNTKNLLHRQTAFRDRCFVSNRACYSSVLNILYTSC

[2] = biological target: T2, SLC7A11-SLC3A2 complex (Homo sapiens, UniProt Q9UPY5); assay: microscale thermophoresis; settings: read-out: binding affinity
T2 construct: system xc-, heterodimeric light/heavy chain transporter; ectopically expressed in HEK293T cells; with Amino acid transporter heavy chain SLC3A2
T2 sequence (Q9UPY5 1-501): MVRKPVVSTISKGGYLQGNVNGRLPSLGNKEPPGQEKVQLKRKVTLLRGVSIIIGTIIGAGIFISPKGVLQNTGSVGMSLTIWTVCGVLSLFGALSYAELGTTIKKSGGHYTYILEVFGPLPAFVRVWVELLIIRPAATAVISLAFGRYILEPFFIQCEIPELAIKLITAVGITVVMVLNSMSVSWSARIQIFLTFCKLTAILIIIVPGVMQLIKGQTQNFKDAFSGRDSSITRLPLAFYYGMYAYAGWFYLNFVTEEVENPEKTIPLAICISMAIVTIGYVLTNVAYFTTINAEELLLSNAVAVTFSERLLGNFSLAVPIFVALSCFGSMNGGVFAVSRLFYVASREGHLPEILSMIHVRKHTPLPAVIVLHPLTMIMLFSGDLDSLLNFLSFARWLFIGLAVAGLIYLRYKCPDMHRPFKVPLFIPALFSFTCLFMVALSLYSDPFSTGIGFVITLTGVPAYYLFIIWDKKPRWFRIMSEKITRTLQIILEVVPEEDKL
T2 sequence (P08195 2-529 partner): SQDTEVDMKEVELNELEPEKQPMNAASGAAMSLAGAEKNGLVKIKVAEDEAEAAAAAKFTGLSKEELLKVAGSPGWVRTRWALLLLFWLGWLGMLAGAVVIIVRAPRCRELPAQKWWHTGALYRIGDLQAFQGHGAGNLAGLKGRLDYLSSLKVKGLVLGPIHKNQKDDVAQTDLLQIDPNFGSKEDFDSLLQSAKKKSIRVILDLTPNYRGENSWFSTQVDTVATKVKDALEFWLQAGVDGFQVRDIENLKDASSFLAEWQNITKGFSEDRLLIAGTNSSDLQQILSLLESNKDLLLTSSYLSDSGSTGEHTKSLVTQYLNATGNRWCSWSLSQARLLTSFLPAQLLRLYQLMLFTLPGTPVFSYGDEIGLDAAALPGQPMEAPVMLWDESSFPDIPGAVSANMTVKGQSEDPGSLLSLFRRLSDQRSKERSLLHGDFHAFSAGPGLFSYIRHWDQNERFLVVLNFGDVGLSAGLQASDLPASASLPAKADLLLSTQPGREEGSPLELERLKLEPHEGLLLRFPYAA

[3] = biological target: T3, SLC7A9-SLC3A1 complex (Homo sapiens, UniProt P82251); assay: microscale thermophoresis; settings: read-out: binding affinity
T3 construct: heterodimeric light/heavy chain transporter, dimer of heterodimers; ectopically expressed in HEK293T cells; with Amino acid transporter heavy chain SLC3A1
T3 sequence (P82251 1-487): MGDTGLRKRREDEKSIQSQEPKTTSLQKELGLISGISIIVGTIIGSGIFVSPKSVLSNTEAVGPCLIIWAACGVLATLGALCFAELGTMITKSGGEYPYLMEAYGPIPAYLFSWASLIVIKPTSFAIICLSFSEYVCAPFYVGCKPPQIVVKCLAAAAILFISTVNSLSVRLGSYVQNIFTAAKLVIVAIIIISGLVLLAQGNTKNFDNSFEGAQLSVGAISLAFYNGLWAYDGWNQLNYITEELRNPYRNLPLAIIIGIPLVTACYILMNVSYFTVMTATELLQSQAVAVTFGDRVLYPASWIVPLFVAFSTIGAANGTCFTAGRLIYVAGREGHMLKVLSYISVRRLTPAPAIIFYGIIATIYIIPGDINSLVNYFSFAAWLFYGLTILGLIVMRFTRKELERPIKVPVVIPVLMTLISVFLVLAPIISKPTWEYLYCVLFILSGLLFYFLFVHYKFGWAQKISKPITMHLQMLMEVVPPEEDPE
T3 sequence (Q07837 1-685 partner): T1 sequence (Q07837 1-685 partner)

## N[C@@H](CSSC[C@H](N)C(=O)O)C(=O)O [cystine]
[1]
  cystine uptake: mutation in any of the seven SLC7A13-specific residues to alanine significantly reduced SLC7A13’s transporter activities
[2]
  Kd: 15.6 ± 7.04 µM
[3]
  Kd: 107 ± 33.5 µM
